Among the data in ChEMBL document CHEMBL6092135, “Current development and structure-activity relationship study of berberine derivatives” (Bioorg Med Chem, 2024) are MIC and IC50 values, retold here.

Molecules are shown by their SMILES. pIC50: −log10 of the molar value.

The test system of test [1] is Candida albicans. The test can be described thus: Antifungal activity against Candida albicans ATCC 10231 assessed as reduction in fungal growth by NCCLS method. It counts as functional.
The next test deals with Aspergillus niger. The test can be described thus: Antifungal activity against Aspergillus niger assessed as inhibition of fungal growth incubated for 48 hrs by CLSI protocol based analysis. It counts as functional.
The next test concerns Cryptococcus neoformans. Description: Antifungal activity against Cryptococcus neoformans assessed as fungal growth inhibition by CLSI based method. It counts as functional.
Another test concerns CEM-VCR. Description: Antiproliferative activity against human CEM-VCR cells assessed as reduction in cell growth. It counts as functional, cell-based.
The test system of test [2] is Lewis lung carcinoma cell line. The test can be described thus: Cytotoxicity against mouse Lewis lung carcinoma cell line. It counts as functional, cell-based.
Test [3] can be described thus: Antiproliferative activity against human QGY-7701 cells assessed as reduction in cell growth. Particulars: QGY7701. It counts as functional, cell-based.
The test system of another test is SMMC-7721. The test can be described thus: Antiproliferative activity against human SMMC-7721 cells assessed as reduction in cell growth. It counts as functional, cell-based.
The subject of test [4] is HepG2. Description: Antiproliferative activity against human HepG2 cells assessed as reduction in cell growth. It counts as functional, cell-based.
For a further test, the system named is HCT-116. The test can be described thus: Cytotoxicity against human HCT-116 cells assessed as reduction in cell viability incubated for 24 hrs by MTT assay. It counts as functional, cell-based. The settings on record: HCT-116, 24 h. On the technique in general: Tetrazolium dyes change colour on reduction, which living cells bring about.
Test [5] relates to HepG2. The test can be described thus: Cytotoxicity against human HepG2 cells assessed as reduction in cell viability by MTT assay. It counts as functional, cell-based.
In the next test the test system is HT-29. The test can be described thus: Antiproliferative activity against human HT-29 cells assessed as reduction in cell viability incubated for 24 hrs by MTT assay. It counts as functional, cell-based. The settings on record: HT-29, 24 h.
The next test has as its system BFTC-905. Description: Antiproliferative activity against human BFTC-905 cells assessed as reduction in cell viability. It counts as functional, cell-based.
In a further test the test system is C6. The test can be described thus: Antiproliferative activity against rat C6 cells assessed as inhibition of cell growth incubated for 72 hrs by Sulforhodamine B assay. It counts as functional, cell-based. Particulars: C6, 72 h. In general terms: The SRB assay estimates cell density from bound dye.
Test [6] has as its system Candida albicans. Description: Antifungal activity against Candida albicans assessed as reduction in fungal growth incubated for 12 hrs by microdilution method. It counts as functional.
The next test concerns Ca-Ski. Description: Cytotoxicity against human Ca-Ski cells assessed as reduction in cell viability measured after 48 hrs by SRB assay. It counts as functional, cell-based.
The nature of test [7]: Antioxidant activity assessed as DPPH radical scavenging activity measured for 30 mins by spectrophotometric analysis. It counts as functional. On the technique in general: DPPH is a stable violet radical that fades when it is reduced.
The next test concerns HeLa. The test can be described thus: Cytotoxicity against human HeLa cells assessed as reduction in cell viability measured after 48 hrs by SRB assay. It counts as functional, cell-based.
Another test has as its system Listeria monocytogenes. The test can be described thus: Antibacterial activity against Listeria monocytogenes ATCC 19111 assessed as reduction in bacterial growth incubated for 20 to 24 hrs by microbroth serial dilution assay. Particulars: time 20-24 hrs. It counts as functional.
The subject of another test is Salmonella typhimurium. Description: Antimicrobial activity against Salmonella enterica subsp. enterica serovar Typhimurium LT2 assessed as inhibition of bacterial growth measured for 24 hrs by broth micro-dilution method. It counts as functional.
The next test relates to Plasmodium falciparum. Description: Antiplasmodial activity against Plasmodium falciparum 3D7 assessed as inhibition of parasite growth measured for 42 hrs by SYBR Green staining based fluorescence analysis. It counts as functional, organism-based. The settings on record: 3D7, 42 h.

One may read the MIC as the smallest concentration in the dilution series that meets the test's criterion for growth inhibition. As for `COc1ccc2c(Cc3ccc(C(C)(C)C)cc3)c3[n+](cc2c1OC)CCc1cc2c(cc1-3)OCO2`, in the test with Candida albicans [1], the MIC turned out to be 1.56 µg/mL.

On to `CCCCOc1c(OC)ccc2c(Cc3ccc(C(C)C)cc3)c3[n+](cc12)CCc1cc2c(cc1-3)OCO2.[Cl-]`, for which the MIC in the test on Aspergillus niger and with Cryptococcus neoformans was 0.25 µg/mL throughout.

What is called pIC50 is the negative decadic logarithm of the IC50, by convention in mol/L. With `CCCCCCCCc1c2[n+](cc3c(OC)c(OC)ccc13)CCc1cc3c(cc1-2)OCO3`, the pIC50 (in the test with CEM-VCR; in [2]; in [3]; in the test with SMMC-7721; in the test on HepG2 [4]) was 7.70 throughout.

For `COc1ccc2c(c[n+]3c4c2ccc2c5c(cc(c24)CC3)OCO5)c1OC(=O)c1ccccc1`, in the test with HCT-116, the negative logarithm of the IC50 (pIC50) was 6.33.

As for `CCCCCCCCCCCCc1c2[n+](cc3c(OC)c(OC)ccc13)CCc1cc3c(cc1-2)OCO3`, the pIC50 in the test with HepG2 [5], in the test with HT-29, with BFTC-905 and in the test with C6 was 6.11 each time.

Turning to `COc1ccc2c(Cc3ccc(C(C)C)cc3)c3[n+](cc2c1O)CCc1cc2c(cc1-3)OCO2.[Cl-]`, the MIC in the test with Candida albicans [6] is 1 µg/mL.

For `COc1cc(CN2CCN(c3ccc(C)cc3C)CC2)c2cc3[n+](cc2c1O)CCc1cc2c(cc1-3)OCO2`, the values for the pIC50 (with Ca-Ski; in test [7]; with HeLa) were 5.24, 4.70 and 5.14, respectively.

On to `COc1cc(CN2CCN(C(c3ccccc3)c3ccccc3)CC2)c2cc3[n+](cc2c1O)CCc1cc2c(cc1-3)OCO2.[Cl-]`, for which the minimum inhibitory concentration (MIC) with Listeria monocytogenes stood at 200 µg/mL.

On to `COc1cc(CN2CCN(c3ccc(F)cc3F)CC2)c2cc3[n+](cc2c1O)CCc1cc2c(cc1-3)OCO2`, for which the pIC50 in the test on Ca-Ski is 5.24; in [7], 4.70; in the test with HeLa it was 5.14.

For `COc1cc(CN2CCN(c3ccccc3Cl)CC2)c2cc3[n+](cc2c1O)CCc1cc2c(cc1-3)OCO2.[Cl-]`, the MIC with Listeria monocytogenes was determined as 200 µg/mL.

Take `COc1ccc(N2CCN(Cc3cc(OC)c(O)c4c[n+]5c(cc34)-c3cc4c(cc3CC5)OCO4)CC2)c(OC)c1`: the pIC50 with Ca-Ski is 5.24; in test [7] it was 4.70; in the test on HeLa, 5.14.

Take `COc1cc(CN2CCN(c3cccc(Cl)c3Cl)CC2)c2cc3[n+](cc2c1O)CCc1cc2c(cc1-3)OCO2`: the results for the pIC50 (in the test on Ca-Ski; in [7]; with HeLa) were 5.24, 4.70 and 5.14, respectively.

For `COc1cc(CN2CCN(c3ccc(Cl)c(Cl)c3)CC2)c2cc3[n+](cc2c1O)CCc1cc2c(cc1-3)OCO2`, the pIC50 in the test with Ca-Ski was 5.24; in test [7], 4.70; in the test with HeLa, 5.14.

As for `COc1cc(Cn2ccnc2)c2cc3[n+](cc2c1O)CCc1cc2c(cc1-3)OCO2.[Cl-]`, the MIC with Salmonella typhimurium stood at 1 µg/mL.

Turning to `COc1cc(CN2CCN(c3cccc(C)c3C)CC2)c2cc3[n+](cc2c1O)CCc1cc2c(cc1-3)OCO2`, the pIC50 with Ca-Ski is 5.24; in test [7], 4.70; with HeLa, 5.14.

Consider `COc1cc(CN2CCN(c3cccc(F)c3F)CC2)c2cc3[n+](cc2c1O)CCc1cc2c(cc1-3)OCO2`, for which the pIC50 with Ca-Ski was 5.24; in test [7] it was 4.70; in the test with HeLa it was 5.14.

With `COc1cc(CN2CCN(c3ccc(Cl)cc3Cl)CC2)c2cc3[n+](cc2c1O)CCc1cc2c(cc1-3)OCO2`, the pIC50 in the test with Ca-Ski was 5.24; in test [7], 4.70; with HeLa, 5.14.

In general, IC50 refers to the concentration at which inhibition is half-maximal. For `COc1ccc2cc3[n+](cc2c1OCc1cn(-c2ccc(S(=O)(=O)N4CCOCC4)cc2)nn1)CCc1cc2c(cc1-3)OCO2.[Cl-]`, the half-inhibitory concentration (IC50) in the test with Plasmodium falciparum is 0.2 µg/mL.

Consider `COc1ccc2cc3[n+](cc2c1OCc1cn(-c2ccc(S(=O)(=O)Nc4ccc(F)cc4)cc2)nn1)CCc1cc2c(cc1-3)OCO2.[Cl-]`, for which the half-maximal inhibitory concentration (IC50) in the test on Plasmodium falciparum worked out at 0.2 µg/mL.

Consider `COc1ccc2cc3[n+](cc2c1OCc1cn(-c2ccc(S(=O)(=O)Nc4ccc(Cl)cc4)cc2)nn1)CCc1cc2c(cc1-3)OCO2.[Cl-]`, for which the half-maximal inhibitory concentration (IC50) with Plasmodium falciparum was 0.2 µg/mL.
